pEC50: −log10 of the molar value. Calls of active or inactive are those of the source.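 Rule for the calls: active = EC50 under 50 µM in a live-cell viability test; inactive = the rest.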
Test system: Molm13 AML cells, XTT viability
Assay: growth inhibition of Molm13 leukemia cells, dose response, AHD inhibitor project, cell-based, XTT viability (AID 1794802)

| SMILES | EC50 | pEC50 |
| --- | --- | --- |
| NCc1ccc(-c2ccc3cc(C(=O)NCC4CCNCC4)oc3c2)cc1 | > 51 µM (inactive) |  |
| O=C(NCC1CCNCC1)c1c[nH]c2cc(-c3ccc(N4CCCC4)cc3)ccc12 |  | 4.30 |
| O=C(NCC1CCNCC1)c1cc2cc(-c3cn[nH]c3)ccc2[nH]1 | > 51 µM (inactive) |  |
| NC(=O)c1ccc(-c2ccc3cc(C(=O)NCC4CCNCC4)sc3c2)cc1 | > 51 µM (inactive) |  |
| O=C(NCC1CCNCC1)c1c[nH]c2cc(-c3ccc(N4CCCCC4)cc3)ccc12 |  | 4.54 |

More lines, now with the values ahead:

| EC50 | pEC50 | SMILES |
| --- | --- | --- |
|  | 5.33 | O=C(NCC1CCNCC1)c1cc2ccc(-c3ccc(N4CCCCC4)cc3)cc2s1 |
|  | 4.89 | O=C(NCC1CCNCC1)c1coc2cc(-c3ccc(N4CCCCC4)cc3)ccc12 |
|  | 5.03 | O=C(NCC1CCNCC1)c1cc2ccc(-c3ccc(N4CCCC4)cc3)cc2s1 |
|  | 5.00 | O=C(NCC1CCNCC1)c1cc2cc(-c3ccc(N4CCCCC4)cc3)ccc2[nH]1 |
|  | 5.29 | O=C(NCC1CCNCC1)c1cc2cc(-c3ccc(N4CCCCC4)cc3)ccc2s1 |

From PubChem BioAssay AID1794802 (Yongcheng Song lab at Baylor College of Medicine, 2022)
